Here are results for five sequences from patent US20090311279A1, “Colorectal Cancer Antigen” (National Institutes of Health, priority 2004, published 2009).

Holding throughout (format): cell-based, human
In experiment [1] the test system is CD4+ clone C111 T cells; 1847 CD40L B cells (HLA-DRβ1*1301). In words: Peptide-pulsed 1847 CD40L B cells, IFN-γ release from clone C111 by ELISA. The following applies: 18 hrs. The procedure:
(§1) Peptides of 20 or 21 amino acids in length that overlapped by 15 amino acids that were encoded by the long open reading frame of the original cDNA clone that was isolated were synthesised by solid-phase method using a peptide synthesiser (AMS 422; Gilson Co., Inc. Middleton, Wis.). The purity of the peptides was verified by mass spectrometry (Tuft's Core Facility, Boston, Mass.). […] After three hours, 1-5×10^4 T cells were added to the wells in 150 μl/well of medium and incubated for 18 hours at 37° C. and 5% CO2, followed by measurement of INF-γ release by ELISA.
(§2) Peptides that were 20 or 21 amino acids in length and that overlapped by either 14 or 16 amino acids, were than synthesised and tested for their ability to sensitise target cells for recognition by C111 T cells. Since autologous normal B cells could not be efficiently expanded, allogeneic normal B cells expressing either DRβ1*0402 or DRβ1*1301 were used to carry out these assays.
(§3) The 1681 and 1847 CD40L stimulated normal B cell lines shared expression of HLA-DRβ1*0402 and HLA-DRβ1*1301 molecules, respectively, with the autologous tumour cell line. These cells were incubated with the panel of peptides and then tested for their ability to stimulate cytokine release from C111 T cells.
Background: An ELISA detects its analyte on a solid surface through an enzyme-linked reagent.

For experiment [2], the system named is CD4+ clone C111 T cells; 1681 CD40L B cells (HLA-DRβ1*0402). In words: Peptide-pulsed 1681 CD40L B cells, IFN-γ release from clone C111 by ELISA. The following applies: 18 hrs. The procedure: as §1, §2, §3
The subject of a further experiment is C111 T cells. Description: Peptide pulsing of target cells expressing HLA-DRβ1*0402 or 1301, cytokine release from C111 T cells. The following applies: 1681 and 1847 CD40L B cells pulsed with peptide. The procedure:
Peptides of 20 or 21 amino acids in length that overlapped by 15 amino acids that were encoded by the long open reading frame of the original cDNA clone that was isolated were synthesised by solid-phase method using a peptide synthesiser (AMS 422; Gilson Co., Inc. Middleton, Wis.). The purity of the peptides was verified by mass spectrometry (Tuft's Core Facility, Boston, Mass.). Allogeneic B cells (1×10^5 cells/well) that expressed either the DRβ1*0402 or the DRβ1*1301 molecules were incubated with 50 μg/ml in 100 μl/well of ISCOVE'S medium plus 10% HS in flat bottom-96-well plates. After three hours, 1-5×10^4 T cells were added to the wells in 150 μl/well of medium and incubated for 18 hours at 37° C. and 5% CO2, followed by measurement of INF-γ release by ELISA.
as §2
The 1681 and 1847 CD40L stimulated normal B cell lines shared expression of HLA-DRβ1*0402 and HLA-DRβ1*1301 molecules, respectively, with the autologous tumour cell line. […]

Where [3] appears, read: 1847 CD40LB pulsed with peptide 12.5 μg/ml.
Where [4] appears, read: 1847 CD40LB pulsed with peptide 25 μg/ml.
Setting [5] is: 1847 CD40LB pulsed with peptide 26.25 μg/ml.
The mark [6] stands for this setting: 1847 CD40LB pulsed with peptide 50 μg/ml.
[7] abbreviates: 1847 CD40LB pulsed with peptide 100 μg/ml.
Where [8] appears, read: 1681 CD40LB pulsed with peptide 12.5 μg/ml.
[9] abbreviates: 1681 CD40LB pulsed with peptide 25 μg/ml.
Setting [10] is: 1681 CD40LB pulsed with peptide 26.25 μg/ml.
[11] abbreviates: 1681 CD40LB pulsed with peptide 50 μg/ml.
The mark [12] stands for this setting: 1681 CD40LB pulsed with peptide 100 μg/ml.

A value given as a limit tells only on which side of the number the result lay.

“ASAFEIFSTFPPTLYQDDTL [COA-1-derived overlapping peptide]”: the IFN-γ release from clone C111 in experiment [1] (setting [3]), in experiment [1] (setting [4]), in experiment [1] (setting [5]), in experiment [1] (setting [6]) and in experiment [1] (setting [7]) was < 7.8 pg/mL in each case.

“DDTLTLQAAGLVPKAALLLRA [COA-1-derived overlapping peptide]”: the IFN-γ release from clone C111 in experiment [2] (setting [8]) was < 7.8 pg/mL; in experiment [2] (setting [9]) it was < 7.8 pg/mL; in experiment [2] (setting [10]), < 7.8 pg/mL; in experiment [2] (setting [11]) it was 16 pg/mL; in experiment [2] (setting [12]), 11 pg/mL; in experiment [1] (setting [3]), < 7.8 pg/mL. Besides, the IFN-γ release from clone C111 in experiment [1] (setting [4]) was < 7.8 pg/mL; in experiment [1] (setting [5]), < 7.8 pg/mL; in experiment [1] (setting [6]) it was 33 pg/mL; in experiment [1] (setting [7]) it was 22 pg/mL.

In the case of “FSTFPPTLYQDDTLTLQAAG (listed as Homo sapiens) [COA-1-derived overlapping peptide]”, the IFN-γ release from clone C111 in experiment [2] (setting [8]) is < 7.8 pg/mL; in experiment [2] (setting [9]), 69 pg/mL; in experiment [2] (setting [10]) it was < 7.8 pg/mL; in experiment [2] (setting [11]), 236 pg/mL; in experiment [2] (setting [12]) it was 105 pg/mL; in experiment [1] (setting [3]) it was 79 pg/mL. In addition, the IFN-γ release from clone C111 in experiment [1] (setting [4]) was 296 pg/mL; in experiment [1] (setting [5]) it was < 7.8 pg/mL; in experiment [1] (setting [6]) it was 397 pg/mL; in experiment [1] (setting [7]), 226 pg/mL. Besides, the “cytokine release from C111 T cells” value with C111 T cells is reported as “stimulated significant cytokine release”.

For the sequence “LQAAGLVPKAALLLRARRAP [COA-1-derived overlapping peptide]”, the IFN-γ release from clone C111 in experiment [2] (setting [8]) was < 7.8 pg/mL; in experiment [2] (setting [9]) it was < 7.8 pg/mL; in experiment [2] (setting [10]), < 7.8 pg/mL; in experiment [2] (setting [11]) it was 12 pg/mL; in experiment [2] (setting [12]), 21 pg/mL; in experiment [1] (setting [3]), < 7.8 pg/mL. The IFN-γ release from clone C111 was < 7.8 pg/mL in experiment [1] (setting [4]), < 7.8 pg/mL in experiment [1] (setting [5]), 32 pg/mL in experiment [1] (setting [6]) and 52 pg/mL in experiment [1] (setting [7]).

As for “TLYQDDTLTLQAAGLVPKAA (listed as Homo sapiens) [COA-1-derived overlapping peptide]”, the IFN-γ release from clone C111 in experiment [2] (setting [8]) was < 7.8 pg/mL; in experiment [2] (setting [9]), < 7.8 pg/mL; in experiment [2] (setting [10]), < 7.8 pg/mL; in experiment [2] (setting [11]) it was 159 pg/mL; in experiment [2] (setting [12]), 51 pg/mL; in experiment [1] (setting [3]), < 7.8 pg/mL. The IFN-γ release from clone C111 in experiment [1] (setting [4]) was < 7.8 pg/mL; in experiment [1] (setting [5]) it was < 7.8 pg/mL; in experiment [1] (setting [6]), 326 pg/mL; in experiment [1] (setting [7]) it was 79 pg/mL. The “cytokine release from C111 T cells” value in the experiment with C111 T cells is recorded as “stimulated significant cytokine release”.
